Calls of active or inactive are those of the source.
Columns and labels:
[1] = target: 1-phosphatidylinositol 4,5-bisphosphate phosphodiesterase gamma-1 (Homo sapiens, UniProt P19174); test: Counterscreen for inhibitors of phospholipase C isozymes (PLC-B3): Fluorescence-based biochemical high throughput dose response assay to identify inhibitors of phospholipase C isozymes (PLC-gamma1).
[2] = target: 1-phosphatidylinositol 4,5-bisphosphate phosphodiesterase beta-3 (Homo sapiens, UniProt Q01970); test: Fluorescence-based biochemical high throughput dose response assay to identify inhibitors of phospholipase C isozymes (PLC-B3).
cells [3] = format: functional, cell-based
cells [4] = format: functional, cell-based; remark: listed apart in the source
[5] = target: T1, Oxysterols receptor LXR-beta (Homo sapiens, UniProt P55055); format: functional, cell-based;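 further: agonist activity at LXR measured by a cell-based luminescence readout across a dose range, run as a counterscreen for daf-12 agonists; HEK293 cells with Gal4-LXR fusion and GAL4-driven luciferase reporter; potency for activation of Gal4-LXR reporter so compounds are agonists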
T1 sequence (P55055 whole entry): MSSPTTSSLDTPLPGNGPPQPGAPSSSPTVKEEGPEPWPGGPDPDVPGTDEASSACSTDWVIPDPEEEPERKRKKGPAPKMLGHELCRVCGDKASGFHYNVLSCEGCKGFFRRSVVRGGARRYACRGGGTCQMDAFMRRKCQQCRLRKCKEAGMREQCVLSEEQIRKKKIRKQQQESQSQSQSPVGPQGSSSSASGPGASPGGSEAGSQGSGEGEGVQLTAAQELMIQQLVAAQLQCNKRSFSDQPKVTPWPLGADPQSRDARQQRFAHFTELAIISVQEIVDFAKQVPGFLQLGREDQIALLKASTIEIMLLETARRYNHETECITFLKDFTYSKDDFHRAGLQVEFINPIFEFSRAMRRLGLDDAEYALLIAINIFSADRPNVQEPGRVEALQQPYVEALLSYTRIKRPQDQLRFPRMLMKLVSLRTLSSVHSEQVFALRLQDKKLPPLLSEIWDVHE

Paired box protein Pax-8 = Paired box protein Pax-8 (Homo sapiens, UniProt Q06710); test: inhibitors of PAX8-driven TPO luciferase reporter, dose response, RMG-I cells, cherry-pick (AID 687027); format: functional, cell-based;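 further: luciferase reporter driven by Pax8 target thyroperoxidase promoter measured by SteadyGlo luminescence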
[6] = PAX2 cell-based inhibition, dose response, selectivity assay for PAX8 inhibitor project, plate reader, dry powder samples (AID 743048); format: functional;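 further: HEK293 cells carrying a WT1 promoter luciferase reporter driven by expressed Pax2; potency is for inhibition of Pax2 driven reporter signal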
[7] = cytotoxicity in COV362 ovarian cancer cells, dose response, cytotoxicity control for PAX8 inhibitor project, cell-based, plate reader, dry powder, SA12 (AID 743144); format: functional
[8] = A2780 ovarian cancer cell cytotoxicity, dose response, cytotoxicity control, plate reader, dry powder samples (AID 743046); format: functional, cell-based
[9] = NIH:OVCAR-3 ovarian cancer cell cytotoxicity, dose response, PAX8 inhibitor project, plate reader, dry powder samples (AID 743044); format: functional, cell-based
[10] = PAX5 activity inhibitors, dose response, selectivity assay for PAX8 inhibitor project, cell-based, plate reader, dry powder samples (AID 743047); format: functional;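 further: HEK293 cells carrying a Pax5 driven CD19 promoter luciferase reporter; potency of inhibitors that lower reporter luminescence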
[11] = cytotoxicity in COV434 cells, dose response, cytotoxicity control for PAX8 inhibitor project, cell-based, plate reader, dry powder, SA7 (AID 743145); format: functional
[12] = cytotoxicity in OV-90 ovarian cancer cells, dose response, PAX8 inhibitor project, cell-based, plate reader, dry powder, SA8 (AID 743149); format: functional
[13] = cytotoxicity in OVCAR8 ovarian cancer cells, dose response, PAX8 project, cell-based, plate reader, dry powder samples (AID 743197); format: functional; settings: OVCAR-8
[14] = cytotoxicity dependent on PAX8, dose response, cell-based, plate reader, dry powder (AID 743049); format: functional
[15] = A549 cell cytotoxicity, dose response, cytotoxicity control, plate reader, cherry-pick, antagonist series (AID 743412); format: functional, cell-based
[16] = LGR2 antagonists, dose response, cell-based, HEK293, CRE-luciferase reporter, cherry pick, set 2 (AID 743343); format: functional;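 further: transfected cells were stimulated with diluted bursicon conditioned medium after compound addition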
[17] = MC4R antagonists, dose response, counter-screen for LGR2 antagonist project, cell-based, plate reader, cherry pick (AID 743444); format: functional;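 further: transfected HEK 293 cells stimulated with alpha-MSH peptide; potency of inhibitors of the alpha-MSH evoked signal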

Sequence of 1-phosphatidylinositol 4,5-bisphosphate phosphodiesterase beta-3 (Q01970 whole entry): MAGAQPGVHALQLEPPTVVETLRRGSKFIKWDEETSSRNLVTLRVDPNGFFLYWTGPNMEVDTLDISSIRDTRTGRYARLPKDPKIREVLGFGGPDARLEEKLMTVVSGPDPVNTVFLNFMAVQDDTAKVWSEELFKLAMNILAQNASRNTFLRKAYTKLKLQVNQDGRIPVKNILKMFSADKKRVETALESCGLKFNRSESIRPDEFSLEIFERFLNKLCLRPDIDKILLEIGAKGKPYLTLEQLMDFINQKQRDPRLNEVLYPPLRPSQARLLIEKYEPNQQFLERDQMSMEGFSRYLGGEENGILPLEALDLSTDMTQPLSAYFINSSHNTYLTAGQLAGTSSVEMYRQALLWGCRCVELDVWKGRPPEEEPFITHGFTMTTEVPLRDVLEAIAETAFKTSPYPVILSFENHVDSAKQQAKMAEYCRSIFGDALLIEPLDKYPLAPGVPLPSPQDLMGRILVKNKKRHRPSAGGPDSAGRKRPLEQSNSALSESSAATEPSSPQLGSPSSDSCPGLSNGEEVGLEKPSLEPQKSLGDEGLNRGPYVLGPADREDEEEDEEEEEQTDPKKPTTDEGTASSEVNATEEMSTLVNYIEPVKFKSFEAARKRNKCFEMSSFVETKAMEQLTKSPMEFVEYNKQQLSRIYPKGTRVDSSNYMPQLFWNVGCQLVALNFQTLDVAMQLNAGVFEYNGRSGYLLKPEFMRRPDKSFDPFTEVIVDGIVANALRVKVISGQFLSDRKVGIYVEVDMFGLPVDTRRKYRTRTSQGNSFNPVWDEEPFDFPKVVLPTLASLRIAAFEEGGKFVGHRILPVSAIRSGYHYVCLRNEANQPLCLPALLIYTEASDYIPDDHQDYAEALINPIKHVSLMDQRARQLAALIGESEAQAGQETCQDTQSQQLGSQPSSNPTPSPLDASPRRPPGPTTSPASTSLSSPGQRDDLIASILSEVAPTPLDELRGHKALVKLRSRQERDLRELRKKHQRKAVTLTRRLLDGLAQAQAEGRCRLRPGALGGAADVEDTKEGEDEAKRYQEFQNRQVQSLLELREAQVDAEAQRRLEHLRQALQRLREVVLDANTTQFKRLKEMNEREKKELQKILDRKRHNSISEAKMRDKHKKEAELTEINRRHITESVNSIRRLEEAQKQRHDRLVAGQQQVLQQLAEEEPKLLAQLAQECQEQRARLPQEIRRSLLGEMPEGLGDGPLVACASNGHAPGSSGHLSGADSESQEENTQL
Sequence of 1-phosphatidylinositol 4,5-bisphosphate phosphodiesterase gamma-1 (P19174 whole entry): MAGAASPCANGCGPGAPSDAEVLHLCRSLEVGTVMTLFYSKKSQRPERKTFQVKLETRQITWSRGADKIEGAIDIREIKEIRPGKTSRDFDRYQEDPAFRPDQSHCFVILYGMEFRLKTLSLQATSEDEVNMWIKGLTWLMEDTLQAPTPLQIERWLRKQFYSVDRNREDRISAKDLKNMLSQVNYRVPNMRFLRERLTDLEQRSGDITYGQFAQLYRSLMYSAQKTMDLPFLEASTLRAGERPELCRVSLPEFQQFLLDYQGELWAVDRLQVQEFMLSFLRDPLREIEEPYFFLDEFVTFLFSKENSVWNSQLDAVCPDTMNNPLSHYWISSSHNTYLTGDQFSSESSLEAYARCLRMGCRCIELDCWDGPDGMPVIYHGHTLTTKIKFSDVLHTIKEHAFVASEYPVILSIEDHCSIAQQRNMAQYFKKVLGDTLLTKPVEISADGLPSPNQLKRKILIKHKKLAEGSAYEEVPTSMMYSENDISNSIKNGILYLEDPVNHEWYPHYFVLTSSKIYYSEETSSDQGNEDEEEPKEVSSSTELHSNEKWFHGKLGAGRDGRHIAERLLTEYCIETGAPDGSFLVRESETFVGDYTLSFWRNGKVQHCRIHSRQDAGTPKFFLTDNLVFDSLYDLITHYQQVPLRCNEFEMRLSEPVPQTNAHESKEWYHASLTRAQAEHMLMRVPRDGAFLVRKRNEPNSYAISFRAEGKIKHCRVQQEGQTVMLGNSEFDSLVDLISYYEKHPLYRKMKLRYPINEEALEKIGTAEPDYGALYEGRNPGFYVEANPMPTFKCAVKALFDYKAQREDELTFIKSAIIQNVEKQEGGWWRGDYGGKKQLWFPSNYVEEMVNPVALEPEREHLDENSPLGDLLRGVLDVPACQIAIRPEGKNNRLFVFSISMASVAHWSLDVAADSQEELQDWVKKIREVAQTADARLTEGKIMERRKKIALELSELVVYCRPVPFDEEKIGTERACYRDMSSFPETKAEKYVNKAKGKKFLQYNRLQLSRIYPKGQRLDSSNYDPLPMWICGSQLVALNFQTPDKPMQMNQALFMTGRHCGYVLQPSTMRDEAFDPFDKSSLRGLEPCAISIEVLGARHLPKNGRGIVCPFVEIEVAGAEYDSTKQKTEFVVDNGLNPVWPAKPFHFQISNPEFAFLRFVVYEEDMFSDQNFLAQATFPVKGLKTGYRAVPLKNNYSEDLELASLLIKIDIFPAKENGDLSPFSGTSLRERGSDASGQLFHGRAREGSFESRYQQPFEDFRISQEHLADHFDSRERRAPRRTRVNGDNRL
Sequence of Paired box protein Pax-8 (Q06710 whole entry): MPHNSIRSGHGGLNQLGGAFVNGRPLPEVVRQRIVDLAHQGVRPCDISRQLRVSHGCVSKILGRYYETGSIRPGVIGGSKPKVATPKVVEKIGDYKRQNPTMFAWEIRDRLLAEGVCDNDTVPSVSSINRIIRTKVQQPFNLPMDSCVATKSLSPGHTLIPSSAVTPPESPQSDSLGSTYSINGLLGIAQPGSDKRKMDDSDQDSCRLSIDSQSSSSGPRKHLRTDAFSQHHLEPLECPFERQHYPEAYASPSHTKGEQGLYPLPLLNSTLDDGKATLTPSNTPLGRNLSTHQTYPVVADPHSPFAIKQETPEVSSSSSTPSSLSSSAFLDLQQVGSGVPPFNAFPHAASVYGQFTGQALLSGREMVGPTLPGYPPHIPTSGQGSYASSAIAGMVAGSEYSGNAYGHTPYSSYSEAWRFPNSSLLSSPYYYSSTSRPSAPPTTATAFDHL

In the case of `COC(=O)C(C)(C)c1cccnc1C#N`, the IC50 [1] is reported as 2.7 µM (active) and the IC50 [2] is reported as > 122 µM (inactive).

With `CSc1ccc(/C=N/Nc2ccc(Cl)c(C(=O)O)c2)cc1` the EC50 (cells [3]) was > 350 µM (not active), the EC50 (cells [4]) was 7.23 µM (active) and the EC50 [5] was > 67.5 µM (inactive).

With `CCCC#Cc1ccc([C@H]2[C@@H](C#N)N(C(=O)C3CCCCC3)[C@H]2CO)cc1` the AC50 (Paired box protein Pax-8) was 12.7 µM (active), the AC50 [6] was 7.11 µM (active) and the AC50 [7] was 49.9 µM (active). The AC50 [8] was 23.9 µM (active), the AC50 [9] was 29.6 µM (active) and the AC50 [10] was 3.5 µM (active). The AC50 [11] was 30 µM (active), the AC50 [12] was 28 µM (active) and the AC50 [13] was 30.3 µM (active). The AC50 [14] was 13.2 µM (active).

In the case of `CCCNC(=O)C[C@H]1CC[C@H]2[C@@H](COc3ccc(NC(=O)c4cncs4)cc3C(=O)N2C)O1`, the IC50 [1] is reported as 59.1 µM (inactive) and the IC50 [2] is reported as 55.4 µM (inactive).

With `CN1c2ccc(-c3ccc(F)cc3)cc2[C@H]2[C@H](CCN2C(=O)Nc2ccc(F)cc2)[C@H]1CO` the AC50 [15] was 24.3 µM (active), the AC50 [16] was 18.6 µM (active) and the AC50 [17] was 18.4 µM (active).
